Measured values taken from patent US20240262795A1, “PYRAZINE COMPOUNDS AS INHIBITORS OF FLT3” (Biomea Fusion, Inc., priority 2021, published 2024).
Like-named read-outs stand apart in the source and are kept apart here.

Key:
[1] = test system: MOLM-13; experiment: Proliferation inhibition, CellTiter-Glo, MOLM-13; assay type: cell-based, human; details: for IC50: Homo sapiens, MOLM-13 cells
Method in brief: (§1)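 About 10,000 cells per well in RPMI-1640 with 10% FBS. Compounds added 2 h after seeding at eight concentrations in duplicate (0.2% DMSO as 100% proliferation), then incubated ~96 h at 37° C, 5% CO2. ATP measured by CellTiter-Glo luminescence; IC50 from four-parameter logistic fit.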

[2] = test system: MV-4-11; experiment: Proliferation inhibition, CellTiter-Glo, MV-4-11; assay type: cell-based, human; details: for IC50: Homo sapiens
Method in brief: as §1

[3] = test system: K-562; experiment: Proliferation inhibition, CellTiter-Glo, K-562; assay type: cell-based, human; details: for IC50: Homo sapiens
Method in brief: as §1

[4] = molecular target: T1, WT FLT3 (Homo sapiens, UniProt P36888); experiment: WT FLT3 Lance Ultra TR-FRET kinase assay; assay type: biochemical
T1 construct: purchased Invitrogen PR4666C
T1 sequence (P36888 564-993 limits assumed): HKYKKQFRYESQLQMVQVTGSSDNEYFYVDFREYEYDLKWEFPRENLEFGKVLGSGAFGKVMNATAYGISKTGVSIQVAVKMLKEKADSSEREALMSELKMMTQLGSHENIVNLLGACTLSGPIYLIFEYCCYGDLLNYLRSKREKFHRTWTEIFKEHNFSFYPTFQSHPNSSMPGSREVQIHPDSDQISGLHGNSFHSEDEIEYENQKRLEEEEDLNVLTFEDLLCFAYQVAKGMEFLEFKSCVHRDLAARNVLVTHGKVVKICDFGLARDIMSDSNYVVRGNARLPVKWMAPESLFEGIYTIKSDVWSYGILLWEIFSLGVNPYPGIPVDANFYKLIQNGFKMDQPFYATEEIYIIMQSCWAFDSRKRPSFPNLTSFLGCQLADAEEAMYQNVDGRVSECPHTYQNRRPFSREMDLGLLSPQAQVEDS
Description: (§2) High throughput 384-well Lance Ultra TR-FRET based kinase assays were established for the WT FLT3 and FLT3-ITD enzymes and employed a ULight-labeled peptide […] and FLT3 proteins labelled with Eu-conjugated antibody […] (WuXi Aptec). The principle of TR-FRET is based on transfer of energy between a donor and acceptor fluorophore that results when the fluorophores are within close proximity (˜100 Å) of each other. Recombinant WT FLT3 (#PR4666C, M.W. 48.6 kDa) was purchased from Invitrogen and FLT3-ITD (FLT3-ITD-W51, #F-12-12CG-10, M.W. 76 kDa) was purchased from Signalchem. Optimal assay conditions for the WT FLT3 enzyme assay were as follows: 0.5 nM FLT3 protein, 50 nM ULight-JAK-1 (Tyr1023) substrate peptide (PerkinElmer #TRF0121), 100 μM ATP, 60 min reaction time. Optimal assay conditions for the FLT3-ITD enzyme assay were as follows: 0.0625 nM FLT3-ITD protein, 50 nM ULight-JAK-1 (Tyr1023) substrate peptide, 50 μM ATP, 90 min reaction time. Briefly, 11 dose 3× serial dilutions were prepared for the test compounds and the reference compound and 100 nanoliters transferred to appropriate wells of 384-well assay plates. Five microliters of 2× enzyme/peptide were added into assay wells, assay plates centrifuged at 1000 rpm for about 30 seconds, sealed with sealing film and incubated for 30 min at 23° C. Assay buffer comprised 50 mM HEPES (pH 7.5), 1 mM EDTA, 0.01% Brij-35, 10 mM MgCl2 and 2 mM DTT. Next 5 μl of a 2× ATP mixture were added into the assay wells and the plates centrifuged at 1000 rpm about 30 seconds, sealed with sealing film and incubated for 23° C. for appropriate duration. Following assay incubation (30 min for WT FLT3 and 60 min for FLT3-ITD) 10 μl 2× Detection Mixture (Eu-W1024 Anti-phosphotyrosine (PT66) 2 nM and EDTA 10 mM) was added to assay wells, assay plates centrifuge at 1000 rpm about 1 minutes, sealed with sealing film and incubated at 23° C. for 60 minutes. Assay plates were read on a Perkin Elmer Envision reader at two wavelengths (665/615) and the ratio of […] calculated.
(§3) Data was expressed as % of inhibition relative to the vehicle control and calculated as follows:
(§4) Results were analyzed by XLFIT5 as % inhibition vs. log [compound concentration] and IC50 values were calculated by non-linear regression using four parameter-logistic equation. Fit=(A+((B−A)/(1+((C/x)^D)))). Res=(y−fit).

[5] = molecular target: T2, FLT3-ITD (Homo sapiens, UniProt P36888, DUP595-601); experiment: FLT3-ITD Lance Ultra TR-FRET kinase assay; assay type: biochemical
T2 construct: purchased Signalchem F-12-12CG-10
T2 sequence (P36888 with tags, fused parts or gaps DUP595-601 limits assumed): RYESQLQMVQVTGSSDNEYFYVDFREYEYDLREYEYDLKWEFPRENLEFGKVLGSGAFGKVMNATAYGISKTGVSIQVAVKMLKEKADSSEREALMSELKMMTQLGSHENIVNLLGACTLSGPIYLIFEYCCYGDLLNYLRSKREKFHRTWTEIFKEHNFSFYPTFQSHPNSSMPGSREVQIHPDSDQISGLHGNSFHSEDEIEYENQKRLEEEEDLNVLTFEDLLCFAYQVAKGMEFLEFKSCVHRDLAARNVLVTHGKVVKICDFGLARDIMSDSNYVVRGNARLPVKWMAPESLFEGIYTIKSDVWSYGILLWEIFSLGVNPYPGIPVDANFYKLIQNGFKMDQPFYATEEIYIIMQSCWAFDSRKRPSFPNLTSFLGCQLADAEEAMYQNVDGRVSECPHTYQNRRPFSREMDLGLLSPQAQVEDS
Description: as §2, §3, §4

[6] = 96 h, IC50 (4 days), CellTiter-Glo, read-out: MOLM-13 IC50
[7] = read-out: IC50 in MOLM-13 cells
[8] = MV4-11, 96 h, MV-4:11 cells, IC50 (4 days), CellTiter-Glo, read-out: MV-4:11 IC50
[9] = MV4-11 cells, read-out: IC50 in MV4-11 cells
[10] = K562, 96 h, K-562 cells, IC50 (4 days), CellTiter-Glo, read-out: K-562 IC50
[11] = K562 cells, read-out: IC50 in K562 cells

Row | SMILES | Ymax in MOLM-13 cells [1] | IC50 [1, 6] | IC50 [1, 7] | IC50 [2, 8] | IC50 [2, 9] | Ymax in MV4-11 cells ([2]; MV4-11 cells) | IC50 [3, 10] | IC50 [3, 11] | Ymax in K562 cells ([3]; K562 cells) | IC50 [4] | IC50 [5]
1 | C=CC(=O)Nc1cc(Nc2nc(NC3CCOCC3)c(CC)nc2C(N)=O)ccc1N1CCC(N2CCN(C)CC2)CC1 [Compound C-2, reference compound] | 98.6% | 10 to 100 nM | 19.2 nM | 1 to 10 nM | 5 nM | 99.1% | 10 to 100 nM | 44 nM | 95.8% | 0.501 to 1 nM | 0.501 to 1 nM
2 | Cc1nc(C(N)=O)c(Nc2cc(F)cc(CCNC(=O)[C@H](C)N(C)C(=O)/C=C/CN(C)C)c2)nc1N(C)C [Compound 239, 5-(dimethylamino)-3-[3-[2-[[(2S)-2-[[(E)-4-(dimethylamino)but-2-enoyl]-methyl-amino]propanoyl]amino]ethyl]-5-fluoro-anilino]-6-methyl-pyrazine-2-carboxamide] |  | 10 to 100 nM |  | 1 to 10 nM |  |  | > 500 nM |  |  | 0.501 to 1 nM | 0.101 to 0.2 nM
3 | C=CC(=O)Nc1cc(Nc2nc(N[C@H]3CC[C@@](C)(O)CC3)c(CC)nc2C(N)=O)ccc1C [Compound C-3, reference compound] | 0% | > 500 nM | > 100 nM | > 500 nM | > 100 nM | 6.8% | > 500 nM | > 100 nM | 0% | > 1 nM | > 1 nM
4 | CCc1nc(Nc2cccc([C@@H](C)CNC(=O)CN(C)C(=O)/C=C/CN(C)C)c2)c(C(N)=O)nc1CC [Compound 503, (R, E)-3-((3-(1-(2-(4-(dimethylamino)-N-methylbut-2-enamido)acetamido)propan-2-yl)phenyl)amino)-5,6-diethylpyrazine-2-carboxamide] |  | < 1 nM |  | < 1 nM |  |  | > 500 nM |  |  | 0.201 to 0.5 nM | 0.501 to 1 nM
5 | CCN(C)c1nc(Nc2cccc(CCNC(=O)[C@H](C)N(C)C(=O)/C=C/CN(C)C)c2)c(C(N)=O)nc1C [Compound 253, (S,E)-3-((3-(2-(2-(4-(dimethylamino)-N-methylbut-2-enamido)propanamido)ethyl)phenyl)amino)-5-(ethyl(methyl)amino)-6-methylpyrazine-2-carboxamide] |  | 1 to 10 nM |  | < 1 nM |  |  | > 500 nM |  |  | 0.501 to 1 nM | 0.201 to 0.5 nM
6 | CCc1nc(C(N)=O)c(Nc2cccc(CCNC(=O)[C@@H](C)N(C)C(=O)/C=C/CN(C)C)c2)nc1N(C)C(C)C [Compound 302, (R,E)-3-((3-(2-(2-(4-(dimethylamino)-N-methylbut-2-enamido)propanamido)ethyl)phenyl)amino)-6-ethyl-5-(isopropyl (methyl)amino) pyrazine-2-carboxamide] |  | 1 to 10 nM |  | < 1 nM |  |  | > 500 nM |  |  | > 1 nM | > 1 nM
7 | CCc1nc(C(N)=O)c(Nc2cc(F)cc(CCNC(=O)[C@H](C)N(C)C(=O)/C=C/CN(C)C)c2)nc1C1CC1 [Compound 159, (S,E)-5-cyclopropyl-3-((3-(2-(2-(4-(dimethylamino)-N-methylbut-2-enamido)propanamido)ethyl)-5-fluorophenyl)amino)-6-ethylpyrazine-2-carboxamide] |  | 1 to 10 nM |  | < 1 nM |  |  | > 500 nM |  |  | 0.501 to 1 nM | 0.201 to 0.5 nM
8 | CCc1nc(C(N)=O)c(Nc2cccc(CCNC(=O)[C@H](C)N(C)C(=O)/C=C/CN(C)C)c2)nc1N(C)CC [Compound 221, (S,E)-3-((3-(2-(2-(4-(dimethylamino)-N-methylbut-2-enamido)propanamido)ethyl)phenyl)amino)-6-ethyl-5-(ethyl(methyl)amino)pyrazine-2-carboxamide] |  | < 1 nM |  | < 1 nM |  |  | > 500 nM |  |  | 0.501 to 1 nM | 0.101 to 0.2 nM
9 | CCc1nc(C(N)=O)c(Nc2cccc(CCNC(=O)[C@H](C)N(C)C(=O)/C=C/CNC)c2)nc1NC(C)C [Compound 303, (S, E)-6-ethyl-5-(isopropylamino)-3-((3-(2-(2-(N-methyl-4-(methylamino)but-2-enamido)propanamido)ethyl)phenyl)amino) pyrazine-2-carboxamide] |  | < 1 nM |  | < 1 nM |  |  | > 500 nM |  |  | 0.201 to 0.5 nM | 0.201 to 0.5 nM
10 | C=CC(=O)N(C)[C@@H](C)C(=O)NCCc1cccc(Nc2nc(N(C)C(C)C)c(CC)nc2C(N)=O)c1 [Compound 315, (S)-6-ethyl-5-(isopropyl(methyl)amino)-3-((3-(2-(2-(N-methylacrylamido)propanamido)ethyl)phenyl)amino)pyrazine-2-carboxamide] |  | 1 to 10 nM |  | 1 to 10 nM |  |  | > 500 nM |  |  | > 1 nM | 0.501 to 1 nM
11 | C=CC(=O)N(C)CC(=O)NCCc1cccc(Nc2nc(N(C)C(C)C)c(CC)nc2C(N)=O)c1 [Compound 308, 6-ethyl-5-(isopropyl(methyl)amino)-3-((3-(2-(2-(N-methylacrylamido)acetamido)ethyl)phenyl)amino)pyrazine-2-carboxamide] |  | 1 to 10 nM |  | 1 to 10 nM |  |  | > 500 nM |  |  | 0.201 to 0.5 nM | 0.101 to 0.2 nM
12 | C=CC(=O)N(C)CC(=O)NC[C@H](C)c1cccc(Nc2nc(N(C)CC)c(CC)nc2C(N)=O)c1 [Compound 513, (R)-6-ethyl-5-(ethyl (methyl)amino)-3-((3-(1-(2-(N-methylacrylamido)acetamido)propan-2-yl)phenyl)amino) pyrazine-2-carboxamide] |  | 1 to 10 nM |  | 10 to 100 nM |  |  | > 500 nM |  |  | 0.501 to 1 nM | 0.201 to 0.5 nM
13 | C=Cc1nc(C(N)=O)c(Nc2cccc(CCNC(=O)CN(C)C(=O)/C=C/CN(C)C)c2)nc1N(C)C(C)C [Compound 328, (E)-3-((3-(2-(2-(4-(dimethylamino)-N-methylbut-2-enamido)acetamido)ethyl)phenyl)amino)-5-(isopropyl(methyl)amino)-6-vinylpyrazine-2-carboxamide] |  | 10 to 100 nM |  | < 1 nM |  |  | > 500 nM |  |  | 0.201 to 0.5 nM | 0.201 to 0.5 nM
